Assay: CSF concentration, Parkinson's disease patients, open label part, Day 14
Assay type: in vivo, human
Conditions: for mean CSF level: 2-3 h post dose, Day 14, PD patients; for Concentration in CSF Mean (SD): Day 14, 2-3 h post dose, PD patients open label; for Concentration in CSF Geo. Mean / Concentration in CSF Median: Day 14, PD patients open label
Description: A single CSF sample was collected at either 2 h or 3 h following the dose on Day 14.
Study NCT02970019 was a multi-center safety and tolerability study of vodobatinib in 60 subjects with Parkinson's Disease (diagnosed with PD according to the Brain Bank criteria of the United Kingdom Parkinson's Disease Society) who were randomized to receive placebo or various daily doses of vodobatinib for 14 days in a parallel assignment design with quadruple masking (participant, care provider, investigator, and outcomes assessor.) In study NCT02970019, consecutive cohorts of up to eight subjects received once-daily doses of 6, 12, 18, 24, 48, 96, 192, or 384 mg of study drug for 14 days, with six subjects in each cohort on vodobatinib and two subjects in each cohort on placebo. An alternating panel design was used such that subjects in the 6 and 18 mg cohorts were the same, and subjects in the 12 and 24 mg cohorts were the same, thus yielding 48 total individuals enrolled in the eight cohorts. There was a wash-out period of 14 days between each were studied in sequential ascending dose cohorts. In parallel to the double-blind cohorts, up to four subjects per dose cohort were enrolled in an open-label study of vodobatinib to receive 24, 48 or 96 mg once-daily doses of for 14 days. These subjects underwent lumbar puncture to collect CSF on Day 1, and 2-3 h after the last morning dose on Day 14. PK blood draws (for both double-blind and open label) were collected at pre-dose (˜30 min) and at 0.5, 1, 2, 4, 8, 12 and 24 h post-dose on Days 1 and 14.
Vodobatinib levels in plasma and CSF were determined using a fully validated LC-MS/MS assay with lower limits of quantitation (LLOQ) of 2.5 ng/mL and 0.05 ng/mL, respectively. PK analyses were performed using standard non-compartmental analysis with Phoenix® WinNonlin® software Version 6.4 to estimate the PK parameters Cmax, Tmax, AUCtau and Css. Descriptive statistics were used to characterize vodobatinib concentrations and PK parameters in plasma and CSF. Statistical calculations were performed with SAS software (Version 9.4, SAS Institute, Cary, North Carolina, USA).

Compound: Cc1ccc(C(=O)NNC(=O)c2c(C)cccc2Cl)cc1C#Cc1cnc2ccccc2c1 [N′-(2-chloro-6-methylbenzoyl)-4-methyl-3-[2-(3-quinolyl)ethynyl]-benzohydrazide]
- mean CSF level (24 mg): 1.5 nM
- Concentration in CSF Mean (SD) (24 mg): 0.6550 (0.2447) ng/mL
- Concentration in CSF Mean (SD) (24 mg, listed as vodobatinib): 0.66 ng/mL
- Concentration in CSF Geo. Mean (24 mg): 0.6317 ng/mL
- Concentration in CSF Median (24 mg): 0.6550 ng/mL
- mean CSF level (48 mg): 1.5 nM
- Concentration in CSF Mean (SD) (48 mg): 0.6683 (0.744) ng/mL
- Concentration in CSF Mean (SD) (48 mg, listed as vodobatinib): 0.67 ng/mL
- Concentration in CSF Geo. Mean (48 mg): 0.8868 ng/mL
- Concentration in CSF Median (48 mg): 0.5350 ng/mL
- mean CSF level (96 mg): 2.4 nM
- Concentration in CSF Mean (SD) (96 mg): 1.1193 (0.4533) ng/mL
- Concentration in CSF Mean (SD) (96 mg, listed as vodobatinib): 1.1 ng/mL
- Concentration in CSF Geo. Mean (96 mg): 1.0482 ng/mL
- Concentration in CSF Median (96 mg): 1.0850 ng/mL
